Results reported in PMC5370276, “Induction of Osteopontin by Dengue Virus-3 Infection in THP-1 Cells: Inhibition of the Synthesis by Brefelamide and Its Derivative” (Frontiers in Microbiology, 2017).

Assays:
[1] = test system: Osteopontin (OPN) in THP-1 cells; experiment: OPN protein level in culture supernatant by ELISA, THP-1 cells; assay type: cell-based, human
Procedure: (§1) Osteopontin levels in the cell culture supernatant were quantified using an ELISA kit (R&D Systems, Minneapolis, MN, USA) according to the manufacturer’s instructions and as previously reported ([Chagan-Yasutan et al., 2014]). The supernatant was diluted eightfold for THP-1 cells and two–fourfold for 293T cells, and the final value was calculated as [drawing 1] and was expressed as pg/ml/10^6 cells.
(§2) Changes in OPN expression in uninfected THP-1 and 293T cell lines in response to treatment with compounds A and B were assessed. Each well in a 12-well tissue culture plate was seeded with 1.8 × 10^5 cells. After overnight incubation, the compounds were added at final concentrations of 3–100 μM. Cells were harvested 3 days later. OPN mRNA and protein levels were quantified by RT-qPCR and ELISA, respectively, to determine the optimal concentration.
(§3) THP-1 and 293T cells were seeded in a Nunc cell culture tube and a 12-well cell culture plate, respectively, at 1.8 × 10^5/well. After overnight incubation, cells were washed and incubated with fresh medium containing DENV-3 at an MOI of 0.1 or incubated without virus for 1.5 h. The inoculum was then removed and cells were washed twice with fresh medium, and compounds A and B were added at final concentrations of 3, 10, and 30 μM. […] On day 3 post-infection, culture supernatants and cell lysates were collected. Cell viability was evaluated by Trypan Blue exclusion and DENV copy number was determined by RT-qPCR. OPN mRNA and protein levels were quantified by RT-qPCR and ELISA, respectively.

[2] = Cytotoxicity, CellTiter 96 Aqueous (MTS) cell proliferation assay; assay type: cell-based, human; settings: human, THP-1 cells, 24 h incubation
Procedure: (§4) Brefelamide, henceforth referred to as compound A ([Kikuchi et al., 2005]), is an aromatic amide isolated from methanol extracts of Dictyostelium brefeldianum and D. giganteum slime mold fruiting bodies; its derivative, henceforth referred to as compound B ([Kikuchi et al., 2005]; [Zhang et al., 2016b]), contains a methyl ether group (-OCH3). Both compounds were dissolved in dimethyl sulfoxide (DMSO) at a concentration of 50 mM and stored at -20°C. Aliquots of the stock solutions were further diluted with appropriate growth medium to the desired concentrations before use. […] THP-1 and 293T cells were seeded in 96-well tissue culture plates at a density of 1.8 × 10^4/well in 90 μl of the appropriate growth medium and incubated for 24 h at 37°C in a humidified 5% CO2 atmosphere. The following day, 10 μl of compounds A and B at concentrations ranging from 0.0001 to 10 mM were added to each well. […] The absorbance at 490 nm was recorded with an ELISA plate reader and the IC50 value was determined by identifying the X-axis value corresponding to one-half of the difference between the maximum and minimum absorbance values using GraphPad Prism v.6 software (GraphPad Inc., San Diego, CA, USA).

[3] = test system: DENV-3; experiment: DENV RNA copy number by RT-qPCR in infected THP-1 cells; assay type: cell-based, Dengue virus-3; settings: 72 h
Procedure: (§5) Viral copy number in culture supernatants and cell lysates was measured by RT-qPCR as previously described ([Chagan-Yasutan et al., 2013]) using the RNA UltraSense One-Step Quantitative RT-PCR System (Invitrogen, Carlsbad, CA, USA) and Thermal Cycler Dice Real Time System (Takara Bio, Otsu, Japan) according to the manufacturers’ protocols. Primers and hydrolysis probes specific to the 3′ untranslated region of each of the four DENV genotypes have been previously published ([Chagan-Yasutan et al., 2013]). The forward and reverse primers were as follows 5′-[…]-3′ and 5′-[…]-3′ ([Warrilow et al., 2002]). The TaqMan probe was labeled at the 5′ and 3′ ends with a 6-carboxyfluorescein (FAM) reporter and Black Hole quencher (BHQ)-1 (i.e., 5′[FAM]–[…]–[BHQ1]3′). The copy numbers obtained by DENV RT-qPCR were linearly associated with plaque numbers (data not shown).
as §3

[4] = test system: Osteopontin (OPN) in 293T cells; experiment: OPN protein level in culture supernatant by ELISA, 293T cells; assay type: cell-based, human
Procedure: as §1, §2
as §3, with “The inoculum was then removed and cells were washed twice with fresh medium, and compounds A and B were added at final concentrations of 3, 10, and 30 μM.” left out

[5] = test system: DENV-3; experiment: DENV RNA copy number by RT-qPCR in infected 293T cells; assay type: cell-based, Dengue virus-3; settings: 0.3 μM
Procedure: as §5
THP-1 and 293T cells were seeded in a Nunc cell culture tube and a 12-well cell culture plate, respectively, at 1.8 × 10^5/well. After overnight incubation, cells were washed and incubated with fresh medium containing DENV-3 at an MOI of 0.1 or incubated without virus for 1.5 h. […] Cell viability was evaluated by Trypan Blue exclusion and DENV copy number was determined by RT-qPCR. OPN mRNA and protein levels were quantified by RT-qPCR and ELISA, respectively.

[6] = test system: 293T cells; experiment: Cytotoxicity, CellTiter 96 Aqueous (MTS) cell proliferation assay; assay type: cell-based, human; settings: 24 h incubation
[7] = test system: THP-1 cells; experiment: as above; assay type: cell-based, human; settings: 24 h incubation
Procedure: as §4

[8] = test system: DENV-infected 293T cells; experiment: Toxicity to DENV-infected 293T cells; assay type: cell-based, human; settings: dose-dependent
Procedure: as §3

[9] = test system: astrocytoma cells; set-up: method as in Kikuchi et al., 2005; Honma et al., 2009; settings: by inhibiting ERK phosphorylation; ref Kikuchi et al., 2005; Honma et al., 2009; cited from earlier work
[10] = test system: OPN mRNA in 293T cells; experiment: OPN mRNA expression by RT-qPCR in uninfected and DENV-3-infected 293T cells; assay type: cell-based, human; settings: uninfected 293T cells, 3-30 μM, 72 h
[11] = test system: DENV-infected THP-1 cells; experiment: Toxicity to DENV-infected THP-1 cells; assay type: cell-based, human; settings: dose-dependent
Procedure: as §3

[12] = test system: OPN mRNA in THP-1 cells; experiment: OPN mRNA expression by RT-qPCR in uninfected and DENV-3-infected THP-1 cells; assay type: cell-based, human; settings: 72 h
From the text: Glyceraldehyde 3-phosphate dehydrogenase (GAPDH) was used as reference gene for normalization of expression levels and was amplified with the following forward and reverse primers: GAPDH-F, 5′-[…]-3′ and GAPDH-R, 5′-[…]-3′. The Taqman probe was as follows: 5′[FAM]–[…]–[BHQ1]3′. A forward and reverse primer set (SPP1-F, 5′-[…]-3′ and SPP1-R, 5′-[…]-3′) and a probe (SPP1-P, 5′-[FAM]–[…] GAAGT–[BHQ1]3′) (Takara Bio) were used to quantify OPN mRNA ([Qin et al., 2015]). The mean fold change in OPN mRNA level was calculated as fold difference = 2^-ΔΔCt.
as §2
THP-1 and 293T cells were seeded in a Nunc cell culture tube and a 12-well cell culture plate, respectively, at 1.8 × 10^5/well. […] Cell viability was evaluated by Trypan Blue exclusion and DENV copy number was determined by RT-qPCR. OPN mRNA and protein levels were quantified by RT-qPCR and ELISA, respectively.

[13] = DENV-infected THP-1 cells, MOI 0.1, 3 days

Structure (SMILES) | OPN levels in supernatant [1, 13] | IC50 at 24 h [2] | Virus replication (DENV RNA copy number) ([3]; THP-1 culture supernatant, 0.3-1 μM) | OPN production ([4]; DENV-infected 293T cells, 0.3 μM) | Viral replication (DENV RNA) ([5]; 293T cell lysates) | Viral replication (DENV RNA) ([5]; 293T culture supernatant) | IC50 [6] | OPN level in supernatant after treatment ([1]; DENV-infected THP-1 cells, 10 μM compound, 3 days, infected control 67848.9) | OPN levels in supernatant ([1]; uninfected THP-1 cells, 3 days) | IC50 [7] | Toxic concentration [8] | Suppression of DENV RNA levels relative to the control ([3]; THP-1 cell culture supernatant, 10 μM) | Suppression of DENV RNA levels ([3]; THP-1 cell lysates, 10 μM) | Proliferation of astrocytoma cells [9] | OPN mRNA levels [10] | Toxic concentration [11] | OPN mRNA expression ([12]; DENV-infected THP-1 cells, MOI 0.1, 3-30 μM) | OPN mRNA expression ([12]; uninfected THP-1 cells, 3-30 μM) | OPN expression (protein, supernatant) ([4]; DENV-infected 293T cells, MOI 0.1, 3 days) | OPN expression (protein, supernatant) ([4]; uninfected 293T cells, 3 days)
CCC(C)(C)C(=O)O[C@H]1C[C@@H](C)C=C2C=C[C@H](C)[C@H](CC[C@@H]3C[C@@H](O)CC(=O)O3)[C@H]21 [simvastatin, reference compound] | had no effect | 14.1 µM | had no effect | suppressed OPN production | inhibited viral replication | inhibited viral replication | – | – | – | – | – | – | – | – | – | – | – | – | – | –
Nc1c(Oc2ccc(O)cc2)cccc1C(=O)CCNC(=O)c1ccc(O)cc1 [compound A, Brefelamide] | dose-dependent reduction | – | – | – | – | – | 32.2 µM | 12247.9 pg/ml/10^6 cells | had no effect | 102 µM | > 30 µM | 75% | not lysates | suppressed the proliferation | reduced OPN mRNA levels | > 30 µM | inhibited OPN mRNA expression in a dose-dependent manner | had no effect | did not inhibit | did not inhibit
